The subject of one data set is DENV-2. Description: Anti-DENV activity assay, DENV RNA level by qRT-PCR in infected Huh-7 cells. Format: cell-based, dengue virus 2. The following applies: for EC50: DENV2, Huh-7 cells, MOI 0.2, treatment 2 h post infection, RNA at 72 h, read-out: EC50, half maximal effective concentration, anti-DENV-2 activity. As to the method:
(§1) Huh-7 cells were cultured in Dulbecco’s modified Eagle’s medium (DMEM) containing 10% fetal bovine serum, 1% non-essential amino acids, and 1% antibiotic-antimycotic in a 5% CO2 at 37 °C. Huh-7 cells were seeded at 24-well plate at density 5 × 10^4 cells/well and infected by DENV infection at a multiplicity of infection (MOI) of 0.2 followed by test compounds treatment 2 h post infection. Total cellular RNA were harvested at 72 h post-infection, and DENV RNA level was analyzed using quantitative real-time reverse-transcription polymerase chain reaction (qRT-PCR) with specific primers against DENV NS5 gene. DENV RNA level was normalized by cellular glyceraldehydes-3-phosphate dehydrogenase (gapdh) mRNA level. 2′-C-methylcytidine (2′CMC) served as positive control. DENV of different serotypes (DENV-1: DN8700828; DENV-2: DN454009A; DENV-3: DN8700829A; DENV-4: S9201818) were obtained from the Centers for Disease Control, Department of Health, Taipei, Taiwan.
On the technique in general: Real-time PCR tracks product formation cycle by cycle.

A short description of the next data set: Cytotoxicity assay (MTS). Type of data set: cell-based. The note with it: human, Huh-7 cells, read-out: CC50, half maximal cytotoxicity concentration. As to the method:
Huh-7 cells were seeded onto 96-well plate at a density of 5 × 10^3 cells per well, followed by compound treatment for 72 h. The cell viability was determined using a standard MTS assay (CellTiter 96® Aqueous One Solution Cell Proliferation assay system, Promega, Madison, WI, USA) according to the manufacturer’s instructions.

Data set [1] relates to DENV. Format: cell-based, dengue virus. The note with it: 10 μM, TCID50 assay.
Another data set concerns DENV-3. Description: Anti-DENV activity assay, DENV RNA level by qRT-PCR in infected Huh-7 cells. Format: cell-based. The following applies: Dengue virus, DENV3, MOI 0.2, 72 h. The method, then: as §1
For a further data set, the system named is DENV-4. Described as above. Format: cell-based. The following applies: Dengue virus, DENV4, MOI 0.2, 72 h. As to the method: as §1
Another data set deals with DENV-1. The description is as above. Format: cell-based. The note with it: Dengue virus, DENV1, MOI 0.2, 72 h. As to the method: as §1
Another data set concerns the target DENV NS2B/NS3 protease (Dengue virus type 2, UniProt P29990). Description: cell-based. The source says:
The DENV RdRp activity reporter system was used to determine the anti-DENV RdRp activity as described before. The NS3 protease reporter-based assay was used to determine the anti-DENV protease activity. The Huh-7 cells were transfected with DENV NS2B/NS3 protease reporter vector pEG(∆4B/5)NLuc carrying a specific DENV protease cleavage peptide sequences and the DENV protease expression vector. […] The supernatant was collected to analyze the nano luciferase (NLuc) activity by Nano-Glo® Luciferase Assay System following the manufacturer’s instructions (Promega, Madison, WI, USA).

Data set [2] concerns DENV. On the set-up: method as in PMID 22201648. The following applies: cited from earlier work.

The structures appear in SMILES notation. Converted amounts (≈) assume the structure as drawn.

Chain of DENV NS2B/NS3 protease (P29990 1476-2093): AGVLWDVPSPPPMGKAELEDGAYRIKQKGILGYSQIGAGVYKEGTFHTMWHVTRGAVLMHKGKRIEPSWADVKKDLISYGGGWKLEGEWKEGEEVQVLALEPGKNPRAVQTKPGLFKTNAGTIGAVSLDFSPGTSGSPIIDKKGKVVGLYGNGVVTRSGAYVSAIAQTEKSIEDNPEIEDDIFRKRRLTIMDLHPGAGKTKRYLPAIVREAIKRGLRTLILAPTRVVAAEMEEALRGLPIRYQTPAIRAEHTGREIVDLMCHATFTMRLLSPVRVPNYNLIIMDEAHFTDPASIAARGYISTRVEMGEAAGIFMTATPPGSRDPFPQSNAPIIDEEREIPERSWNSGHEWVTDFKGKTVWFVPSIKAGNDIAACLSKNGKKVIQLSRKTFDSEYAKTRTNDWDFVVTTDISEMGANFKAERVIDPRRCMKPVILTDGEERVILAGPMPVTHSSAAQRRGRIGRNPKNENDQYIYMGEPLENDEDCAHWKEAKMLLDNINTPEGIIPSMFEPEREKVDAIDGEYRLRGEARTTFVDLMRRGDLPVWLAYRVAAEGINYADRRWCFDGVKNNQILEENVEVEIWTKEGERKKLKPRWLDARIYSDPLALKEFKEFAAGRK
Chain of DENV NS2B/NS3 protease (P29990 1346-1475): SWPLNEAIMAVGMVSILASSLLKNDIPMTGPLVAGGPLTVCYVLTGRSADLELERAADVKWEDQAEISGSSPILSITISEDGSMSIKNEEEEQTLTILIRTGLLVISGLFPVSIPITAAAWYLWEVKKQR

With `C[C@@]1(O)[C@H](O)[C@@H](CO)O[C@H]1n1ccc(N)nc1=O` [2′CMC, 2′-C-methylcytidine, reference compound], the “SI, selectivity index, CC50/EC50” value in the data set on DENV-2 (CC50 (Huh-7) / EC50 (DENV-2)) was over 7.2. For the same molecule, the EC50 in the data set with DENV-2 (Dengue virus) stood at 13.23 ± 0.07 µM. Moreover, the CC50 at 72 h in the data set “Cytotoxicity assay (MTS)” was 94.8 ± 4.15 µM.

Regarding `CC(C)(O)CCC(O)C(C)(O)C1CCC2(O)C3=CC(=O)C4C(O)CCCC4(C)C3CCC12C` (centres unmarked) [Compound 1, palythone A], the “anti-DENV-2 activity in words” value in the data set on DENV-2 is recorded as “weak anti-DENV-2 activities”. In addition, the EC50 in the data set with DENV-2 (Dengue virus) came to 54 ± 2.17 µM.

With `CC(=O)O[C@H]1C[C@@]2(C)[C@@H](C[C@H]1O)C(=O)C=C1[C@@H]2CC[C@]2(C)[C@@H]([C@@](C)(O)[C@H](O)CCC(C)(C)O)CC[C@@]12O` [Compound 2, 20-hydroxyecdysone 2-acetate], in the data set on DENV-2 (Dengue virus), the EC50 is over 100 µM. In addition, the CC50 at 72 h in “Cytotoxicity assay (MTS)” is over 200 µM.

On to `CC(C)(O)CC[C@@H](O)[C@](C)(O)[C@H]1CC[C@@]2(O)C3=CC(=O)[C@@H]4CC[C@@H](O)C[C@]4(C)[C@H]3CC[C@]12C` [Compound 3, 3-deoxy-20-hydroxyecdysone], for which the EC50 with DENV-2 (Dengue virus) was over 100 µM. Besides, the CC50 at 72 h in the data set “Cytotoxicity assay (MTS)” is over 200 µM.

As to `C[C@@H](C[C@@H](O)[C@](C)(O)[C@H]1CC[C@@]2(O)C3=CC(=O)[C@@H]4C[C@@H](O)[C@@H](O)C[C@]4(C)[C@H]3CC[C@]12C)C(C)(C)O` [Compound 4, 24-epi-makisterone A], the “anti-DENV-2 activity in words” value with DENV-2 is recorded as “weak anti-DENV-2 activities”. Also, in the data set on DENV-2 (Dengue virus), the EC50 amounted to 46.5 ± 0.59 µM.

As to `CC(=O)OC1CC(C)(C)C(=C=CC(C)=CC=CC=CC=C(C)C=C2C=C(C=CC34OC3(C)CC(O)CC4(C)C)C(=O)O2)C(C)(O)C1` (centres unmarked) [Compound 9, peridinin], the “decrease of the viral titer as compared to mock-treatment” value in the data set with DENV [1] was 2 ± 0.6 log10. The EC50 was 5.84 ± 0.19 µM in the data set on DENV-3; 6.51 ± 0.3 µM in the data set on DENV-4; 7.62 ± 0.17 µM with DENV-1; 8.5 ± 0.41 µM on DENV NS2B/NS3 protease; 4.5 ± 0.46 µM in the data set on DENV-2 (Dengue virus). In addition, the IC50 in the data set with DENV-2 (Dengue virus, DENV2, Huh-7, read-out: IC50, antiviral activity (abstract)) is 4.5 ± 0.46 µg/mL (≈ 7.13 µM). Further, the CC50 at 72 h in “Cytotoxicity assay (MTS)” stood at 133 ± 3.21 µM.

Take `O=c1c(O)c(-c2ccc(O)c(O)c2)oc2cc(O)cc(O)c12` [quercetin]: the “IC50, anti-DENV activity” value in the data set on DENV [2] is 35.7 µg/mL (≈ 118 µM).

Usually IC50 stands for the concentration that inhibits the measured activity by half.

The values are drawn from PMC4999912, “Anti-Dengue Virus Constituents from Formosan Zoanthid Palythoa mutuki” (Marine Drugs, 2016).
